Measurements as given in patent publication US12594281B2, “Pharmaceutical dosage forms and methods of use” (EMALEX BIOSCIENCES, INC., priority 2024, dated 2026).
Values joined by “and” are separate entries in the source; they are usually repeats but may differ in a detail not shown here. Identical values can stand only once. Like-named read-outs stand apart in the source and are kept apart here.

Assays:
[1] = Phase 1 absorption, metabolism and excretion study of [14C]-ecopipam, single oral capsule dose; format: in vivo, human
Excerpt: Healthy subjects of any ethnic origin, aged between 35 and 55 years, inclusive, with a body mass index between 18.0 and 30.0 kg/m^2, inclusive, were selected for the study.

[2] = minipig, in vivo
Excerpt: (§2) The minipigs were 4-5 months old with a weight range within 10-15 kg at dosing. 3 male animals were used.
(§3) The concentration-time data were normalized for differences in dose.

[3] = target: ^3H-23390 binding site (Homo sapiens, UniProt P21728); conditions: read-out: Ki ^3H-23390; cited from earlier work
^3H-23390 binding site, sequence (P21728 whole entry): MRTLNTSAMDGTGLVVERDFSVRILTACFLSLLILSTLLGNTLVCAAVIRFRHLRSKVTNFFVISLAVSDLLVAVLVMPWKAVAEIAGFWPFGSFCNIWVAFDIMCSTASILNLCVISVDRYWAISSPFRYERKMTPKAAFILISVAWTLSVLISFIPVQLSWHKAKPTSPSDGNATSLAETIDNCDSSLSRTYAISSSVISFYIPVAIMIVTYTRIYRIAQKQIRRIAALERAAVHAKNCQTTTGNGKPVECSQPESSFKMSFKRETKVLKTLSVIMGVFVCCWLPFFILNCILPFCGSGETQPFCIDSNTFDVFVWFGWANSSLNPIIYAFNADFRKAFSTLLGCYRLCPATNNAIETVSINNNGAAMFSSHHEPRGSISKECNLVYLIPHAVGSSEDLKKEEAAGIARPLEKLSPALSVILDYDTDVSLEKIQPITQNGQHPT

[4] = target: ^3H-Spip binding site (Homo sapiens, UniProt P14416); conditions: read-out: Ki ^3H-Spip; cited from earlier work
^3H-Spip binding site, sequence (P14416 whole entry): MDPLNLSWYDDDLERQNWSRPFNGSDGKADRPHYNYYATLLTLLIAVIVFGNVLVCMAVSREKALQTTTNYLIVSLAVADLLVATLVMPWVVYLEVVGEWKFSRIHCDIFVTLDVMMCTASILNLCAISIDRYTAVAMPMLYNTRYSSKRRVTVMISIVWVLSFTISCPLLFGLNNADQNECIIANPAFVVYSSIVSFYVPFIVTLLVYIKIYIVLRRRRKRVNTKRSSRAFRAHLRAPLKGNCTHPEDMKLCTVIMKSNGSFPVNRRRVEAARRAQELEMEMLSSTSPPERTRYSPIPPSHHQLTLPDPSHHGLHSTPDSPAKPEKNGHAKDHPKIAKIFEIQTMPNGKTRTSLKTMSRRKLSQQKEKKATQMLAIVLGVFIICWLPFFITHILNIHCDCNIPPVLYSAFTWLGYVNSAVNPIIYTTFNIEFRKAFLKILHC

[5] = cited from earlier work
[6] = BCS solubility of Ecopipam HCl in pH buffers and bio-relevant media; format: physicochemical; conditions: for solubility at 24 h: 37 °C, thermodynamic from solid; for Solubility / Purity at 24 hours in solubility test: 37° C.
Experimental: Solubility and final pH were the average of three parallel values. Purity was that of 24 hours. N/A means not performed.

[7] = Clinical drug-drug interaction study with rifampicin (EBS-101-HV-106); format: in vivo, human; conditions: rifampicin co-administered with oral ecopipam
Excerpt: (§1) The results from these studies are summarized in Table 7 below along with clinical recommendations.

[8] = Clinical drug-drug interaction study with divalproate sodium, general UGT inhibitor (EBS-101-HV-102); format: in vivo, human; conditions: divalproate sodium co-administered with oral ecopipam
Excerpt: as §1

[9] = Clinical drug-drug interaction study with mefenamic acid, specific UGT1A9 inhibitor (EBS-101-HV-102); format: in vivo, human; conditions: mefenamic acid co-administered with oral ecopipam
Excerpt: as §1

[10] = Pharmacokinetics of sublingual vs oral tablet in minipigs
Excerpt: as §2, §3

[11] = Phase 2 exposure-response for efficacy in Tourette's Disorder; format: in vivo, human; conditions: logistic regression model
[12] = Thorough QT study with C-QT analysis (EBS-101-HV-105); format: in vivo, human; conditions: for 10 msec increase in ΔΔQTcF interval: primary model
Experimental: A randomized, double-blind, single dose, 4-way crossover thorough QT study was conducted with an open-label active control (EBS-101-HV-105, 2024).
The primary endpoint for this study was pre-specified to be based on C-QT analysis using the methods outlined in the white paper (Garnett C, 2018) (Garnett C B. P., 2018).

[13] = Exposure-response analyses for safety (sedation, QTc); set-up: species or system human; conditions: in vivo
Excerpt: Exposure-response analyses have been conducted for safety using sedation as an endpoint and cardiac safety (QTc).

[14] = single oral dose 200 mg, fasted
[15] = after single oral dose of [14C]-ecopipam HCl
[16] = minipig, dose-normalized, Zydis ODT 25 mg sublingual vs IR tablet 50 mg oral (ecopipam HCl)
[17] = single oral dose 200 mg [14C]-ecopipam HCl
[18] = single dose of ecopipam 537.6 mg

Oc1cc2c(cc1Cl)CCNC1CCc3ccccc3C21 (stereo in doubt) [EBS-101-40853]
Geometric mean AUC ratio of plasma analyte to plasma total radioactivity ([1]; human, in vivo, po, 200 mg): 0.00178
Percentage of dose excreted in urine as analyte (geometric mean) ([1]; in vivo, po): 0.0645%
Share of radioactivity in plasma ([1]; in vivo, po): 0.26%
Geometric mean apparent terminal elimination half-life (t½) of analyte ([1]; in vivo, po, 200 mg): 25.6 h
Geometric mean renal clearance ([1]; in vivo, po, 200 mg): 1.53 L/h
Reduction of first pass metabolite concentration vs oral dosage form for oral systemic administration [2]: 48-55%

CN1CCc2cc(Cl)c(O)cc2C2c3ccccc3CC21 (stereo not drawn) [CH2/0/trans/Cl/OH]
Ki [3]: 10 nM
Ki [4]: 2600 nM

CN1CCc2cc(Cl)c(O)cc2[C@H]2c3ccccc3CC[C@@H]21 [CH2/1/7b(R):7a(S)(−)/Cl/OH]
CAR (MED) ([5]; po): 30 (po)

CN1CCc2cc(Cl)c(O)cc2[C@@H]2c3ccccc3CC[C@H]21 [CH2/1/7b(S):7a(R)(+)/Cl/OH]
CAR (MED) ([5]; po): >30 (po)

COc1cc2c(cc1O)C1c3ccccc3CCC1N(C)CC2 (stereo not drawn) [CH2/1/cis/CH3O/OH]
Ki [3]: 6450 nM
Ki [4]: > 100000 nM

Cc1cc2c(cc1O)C1c3ccccc3CCC1N(C)CC2 (stereo not drawn) [CH2/1/trans/CH3/OH]
Ki [3]: 119 nM
Ki [4]: 7200 nM

COc1cc2c(cc1O)C1c3ccccc3CCC1N(C)CC2 (stereo not drawn) [CH2/1/trans/CH3O/OH]
Ki [3]: 23 nM
Ki [4]: 2500 nM
CAR (MED) ([5]; po): 30 (po);
CAR (MED) ([5]; sc): 0.3-1 (sc)

CN1CCc2cc(Cl)c(N)cc2C2c3ccccc3CCC21 (stereo not drawn) [CH2/1/trans/Cl/NH2]
Ki [3]: 70 nM
Ki [4]: 4180 nM
CAR (MED) ([5]; po): 3 (po)

CN1CCc2cc(Cl)c(O)cc2C2c3ccccc3CCC21 (stereo not drawn) [CH2/1/trans/Cl/OH]
CAR (MED) ([5]; po): 30 (po);
CAR (MED) ([5]; sc): 0.3 (sc)

CN1CCc2ccc(O)cc2C2c3ccccc3CCC21 (stereo not drawn) [CH2/1/trans/H/OH]
Ki [3]: 30 nM
Ki [4]: 3500 nM

COc1cc2c(cc1O)C1c3ccccc3CCCC1N(C)CC2 (stereo not drawn) [CH2/2/trans/CH3O/OH]
Ki [3]: 292 nM
Ki [4]: > 100000 nM
CAR (MED) ([5]; sc): 10 (sc)

COc1cc2c(cc1O)CCN(C)C1CCCc3ccccc3C21 (stereo not drawn) [CH2/2/trans/HO/CH3O]
Ki [3]: 7730 nM
Ki [4]: > 100000 nM
CAR (MED) ([5]; sc): 10 (sc)

CN1CCc2cc(Cl)c(O)cc2[C@H]2c3ccccc3CC[C@@H]21.Cl [Ecopipam HCl]
solubility at 24 h ([6]; pH 1.2, simulated gastric fluid, pH 1.2 HCl buffer, 50 mM, up to 24 hours, final pH 1.23): 1560 µg/mL
solubility at 24 h ([6]; pH 1.61, fassgf or other biorelevant, FaSSGF, final pH 1.61): 2000 µg/mL
solubility at 24 h ([6]; pH 3, aqueous buffer, pH 3.0 citrate buffer, 100 mM, up to 24 hours, final pH 2.96): 9400 µg/mL
solubility at 24 h ([6]; pH 3, aqueous buffer, pH 3.0 phthalate buffer, 50 mM, up to 24 hours, final pH 3.05): 8 µg/mL
solubility at 24 h ([6]; pH 4.5, aqueous buffer, pH 4.5 acetate buffer, 50 mM, up to 24 hours, final pH 4.50): 3300 µg/mL
solubility at 24 h ([6]; pH 5.5, aqueous buffer, pH 5.5 acetate buffer, 50 mM, up to 24 hours, final pH 5.49): 230 µg/mL
solubility at 24 h ([6]; pH 5.84, fessif, FeSSIF-V2, final pH 5.84): 660 µg/mL
solubility at 24 h ([6]; pH 6.49, fassif, FaSSIF-V2, final pH 6.49): 50 µg/mL
solubility at 24 h ([6]; pH 6.8, aqueous buffer, pH 6.8 phosphate buffer, 50 mM, up to 24 hours, final pH 6.85): 20 µg/mL
Solubility ([6]; FaSSGF, final pH 1.61): 2020 µg/mL
XRPD (crystalline form after solubility test) ([6]; FaSSIF-V2): Changed
XRPD (crystalline form after solubility test) ([6]; FeSSIF-V2): Changed
Time stable in bio-relevant media ([6]; bio-relevant media at 37° C., degradation occurred from 3 hours): up to 1 hour
Purity at 24 hours in solubility test ([6]; pH 1.2 HCl buffer, 50 mM): 99.87%
XRPD (crystalline form after solubility test) ([6]; pH 3.0 citrate buffer, 100 mM): did not exhibit a change in crystallinity
Purity at 24 hours in solubility test ([6]; pH 3.0 citrate buffer, 100 mM): 99.87%
Solubility ([6]; pH 3.0 citrate buffer, 100 mM, up to 24 hours, final pH 2.96): 9420 µg/mL
XRPD (crystalline form after solubility test) ([6]; pH 3.0 phthalate buffer, 50 mM): Changed
XRPD (crystalline form after solubility test) ([6]; pH 4.5 acetate buffer, 50 mM): Changed
Purity at 24 hours in solubility test ([6]; pH 4.5 acetate buffer, 50 mM): 99.85%
XRPD (crystalline form after solubility test) ([6]; pH 5.5 acetate buffer, 50 mM): Changed
Purity at 24 hours in solubility test ([6]; pH 5.5 acetate buffer, 50 mM): 100.00%
XRPD (crystalline form after solubility test) ([6]; pH 6.8 phosphate buffer, 50 mM): Changed
Purity at 24 hours in solubility test ([6]; pH 6.8 phosphate buffer, 50 mM): 100.00%

CN1CCc2ccc(O)cc2C2c3ccccc3OCC21 (stereo not drawn) [O/1/trans/H/OH]
Ki [3]: 121 nM

CN1CCc2cc(Cl)c(O)cc2[C@H]2c3ccccc3CC[C@@H]21.Cl [[^14C]-ecopipam HCl]
Median time of the maximum observed concentration of total radioactivity in whole blood ([1]; single oral dose 200 mg): 2.00 hours postdose
Arithmetic mean radioactivity recovered in feces [1, 14]: 8.27%
Arithmetic mean radioactivity recovered in urine [1, 14]: 83.3%

CN1CCc2cc(Cl)c(O[C@@H]3O[C@H](C(=O)O)[C@@H](O)[C@H](O)[C@H]3O)cc2C2c3ccccc3CCC21 (stereo partly drawn) [ecopipam glucuronide, ecopipam O-β-D-glucuronide]
Share of radioactivity in plasma [1, 15]: 80%
Share of radioactivity in the urine [1, 15]: 67%
Lower Cmax [7]: 22%
Lower Cmax [8]: 23%
Lower Cmax [9]: 15%
Ratio of SL/oral AUC [10, 16]: 0.15
Ratio of SL/oral Cmax [10, 16]: 0.24
Reduction of first pass metabolite concentration vs oral dosage form for oral systemic administration ([10]; sublingual / intraoral dosage form): 76-85% and 75-85%

CN1CCc2cc(Cl)c(O)cc2[C@H]2c3ccccc3CC[C@@H]21 [ecopipam, (−)-trans-6,7,7a,8,9,13b-hexahydro-3-chloro-2-hydroxy-N-methyl-5H-benzo [d]-naphtho-[2,1-b]azepine]
half-life ([1]; male, human, plasma, single oral dose 200 mg [14C]-ecopipam HCl, read-out: Geometric mean apparent terminal elimination half-life (t½) of analyte (converted)): 17.3 h
CL renal ([1]; male, human, urine, single oral dose 200 mg [14C]-ecopipam HCl, read-out: Geometric mean renal clearance (converted)): 4.73 mL/min
Share of the radiolabeled dose found as ecopipam in plasma ([1]; oral systemic administration): about 1.69%
Median time of the maximum observed concentration of analyte in plasma [1, 17]: 2.00 hours postdose
Percentage of dose excreted in urine as analyte (geometric mean) [1, 17]: < 1%
Unchanged compound in feces, share of the total administered dose [1, 17]: 6%
Increase in odds of being a responder at 12 weeks per 100 unit increase in combined steady-state AUC of ecopipam and EBS-101-40853 [11]: 6.8%
10 msec increase in ΔΔQTcF interval ([12]; single dose ecopipam 179.2 mg + a general UGT inhibitor): cannot be ruled out
10 msec increase in ΔΔQTcF interval ([12]; single dose ecopipam 179.2 mg): can be ruled out
Effect on QTcF [12, 18]: increase
Predicted increase in ΔΔQTcF interval [12, 18]: up to 20.4 msec
Effect on HR, QRS, or PR intervals ([12]; single doses 179.2 mg and 537.6 mg): no effect
Exposure-response relationship for QTc [13]: exposure-response relationship
Relationship between plasma Cmax or AUCinf and choice reaction time or visual analogue scale for sedation [13]: no relationship
Lower Cmax and AUC∞ [7]: substantially (72-77%) lower Cmax
Increase in AUC∞ [8]: 40853 glucuronide, a ~2.1x increase
